Values joined by “and” are separate entries in the source; they are usually repeats but may differ in a detail not shown here. Equal values may be shown once.
Target: SARS-CoV-2 3CL^pro C145G (Severe acute respiratory syndrome coronavirus 2, UniProt P0DTD1, C3408G)
Type: binding

| Structure (SMILES) | -TΔS |
| --- | --- |
| CC(C)(C)NC(=O)N[C@H](C(=O)N1C[C@H]2[C@@H]([C@H]1C(=O)N[C@H](C#N)C[C@@H]1CCNC1=O)C2(C)C)C(C)(C)C [compound 2] | -5.978 ± 0.1 kcal/mol and -5.978 kcal/mol |
| CC(C)(C)NC(=O)N[C@H](C(=O)N1CC2(C[C@H]1C(=O)N[C@H](C#N)C[C@@H]1CCNC1=O)SCCS2)C(C)(C)C [compound 7] | -4.818 ± 0.268 kcal/mol and -4.818 kcal/mol |
| CC(C)(C)[C@H](NC(=O)C1(F)CC1)C(=O)N1CC2(C[C@H]1C(=O)N[C@H](C#N)C[C@@H]1CCNC1=O)SCCS2 [compound 10] | -2.18 ± 0.562 kcal/mol and -2.18 kcal/mol |
| CC(C)(C)[C@H](NS(C)(=O)=O)C(=O)N1CC2(C[C@H]1C(=O)N[C@H](C#N)C[C@@H]1CCNC1=O)SCCS2 [compound 11] | -3.559 ± 0.332 kcal/mol and -3.559 kcal/mol |
| CC(C)(C)[C@H](NS(=O)(=O)C1CC1)C(=O)N1CC2(C[C@H]1C(=O)N[C@H](C#N)C[C@@H]1CCNC1=O)SCCS2 [compound 12] | -1.19 ± 0.325 kcal/mol and -1.19 kcal/mol |

Source: paper PMC10575921 (Nature Communications, 2023)
